Columns and labels:
GATA-luc = test: Luciferase reporter assay in HEK293 cells; format: cell-based; conditions: HEK293, treated 3 hours after transfection for 48 hours, vs DMSO (fucoxanthin 0.1, 1, 10 μM)
From the text: The plasmids pGL3-Cebpα promoter-luc and pGL3-Mitf1 promoter-luc were provided by Dr. Hua Huang (University of Colorado school, Denver, USA). The plasmid NF-κB-luc was purchased from Agilent Technologies (Santa Clara, Calif.). The GATA-responsive reporter vector was provided by Dr. Ishijima (Takasaki University of Health and welfare, Gunma, Japan). Three GATA motifs from mouse α-1 globulin gene (5′-TGATAA-3′) were tandemly inserted into Sma I site of pRBGP3. HDC promoter was provided by Dr. Ootsu (Tohoku University school of Medicine, Sendai, Japan) and cloned into Kpn I-Hind III site of pGL4.10 (Hdc promoter-luc). The reporter assay was performed according to the method described in Kanatani, N. et al. Briefly, HEK293 cells were transfected with each of the luciferase constructs (0.2 μg) or pRL-CMV (Promega, Madison, Wis.) (0.001 μg). At 3 hours after transfection, the cells were treated with fucoxanthin (0.1 μM, 1 μM or 10 μM) or DMSO for 48 hours and reporter assay was performed using Dual-Luciferase® Reporter Assay System (Promega). Luciferase activity was measured using luminometer model TD20/20n (Turner BioSystems, Sunnyvale, Calif.) and normalized to Renilla luciferase activity expressed by CMV promoter.
GATA-reporter assay was performed using HEK293 cells expressing GATA-luc prepared in Example 8, in the same manner as described in Example 8 except using various carotenoids (fucoxanthin, astaxanthin, lycopene, β-carotene or retinoic acid) in place of fucoxanthin.

[1] = test system: bone marrow-derived mast cells (BMMCs); test: Granule formation in BMMCs, tryptase immunostaining; format: cell-based, mice; conditions: 10 μM, vs control-treated cells
Protocol: Mature mast cells were prepared in the same manner as described in Example 5. The BMMCs obtained were mounted on a glass slide and heat-fixed. The analysis of the preparation was performed according to the method described in Kosaka, T., Fukui, R., Matsui, M. et al. (2014) “RAGE, Receptor of Advanced Glycation Endoproducts, Negatively Regulates Chondrocytes Differentiation.” PLoS ONE 9(10): e108819. Briefly, the cells were reacted with a mouse anti-mast cell tryptase antibody (AB2378, Abcam, Tokyo, Japan) and then reacted with an FITC-conjugated anti-mouse IgG (Santa Cruz Biotechnology, Inc.) and 1 μg/mL DAPI (4′,6-diamino-2-phenylindole dihydrochloride). The fluorescent image was analyzed by EVOS® FL Cell Imaging System (Life Technologies Corp).
To confirm where the effect of fucoxanthin on granule formation in mast cells is specific rather than common to carotenoids, we compared granule formation between fucoxanthin-treated and astaxanthin-treated BMMCs by immunostaining of tryptase. The immunostaining assay was performed in the same manner as described in Example 6.

NC/Nga mice [2] = test: Swelling (length) of the auricular lymph node in NC/Nga mice; format: in vivo; conditions: topical application for 5 weeks, PiCl-sensitized, vs Vaseline
From the text: (§1) NC/Nga mice (5 weeks old, female) were purchased from Japan SLC, Inc. […] On day 12, day 19, day 26 and day 33 after starting application of Vaseline or fucoxanthin, 0.8% picryl chloride (PiCl) was further applied to the back skin of the mice. The behaviors of the mice were observed by video monitoring. On day 34 after starting application of Vaseline or fucoxanthin, bromodeoxyuridine (BrdU, Nacalai Tesque) (0.[…] weight) was intraperitoneally administered to the mice. At 5 weeks after starting application of Vaseline or fucoxanthin, the time each mouse spent for scratching behavior in 10 minutes was measured by video monitoring. Then, the mice were sacrificed and the auricular lymph node, blood and skin were obtained. Serum IgE content was determined by enzyme-linked immunosorbent assay (ELISA) using Mouse IgE Assay Kit (Morinaga Institute of Biological Science, Inc.). […] BrdU uptake was determined by ELISA using Cell Proliferation ELISA, BrdU (Colorimetric) (Roche Diagnostics K.K.). […] Also, serum IgE levels and swelling of the auricular lymph nodes of the mice were determined in the same manner as described in Example 2.

NC/Nga mice [3] = test: Clinical symptoms of dermatitis in PiCl-sensitized NC/Nga mice; format: in vivo; conditions: topical application plus PiCl, at 5 weeks
Protocol: Next, we examined the effects of fucoxanthin and astaxanthin on clinical symptoms of dermatitis in NC/Nga mice. In the same manner as described in Example 2, fucoxanthin or astaxanthin and PiCl were applied to NC/Nga mice. […] In the same manner as described in Example 2, Vaseline, fucoxanthin or tacrolimus and PiCl were applied to NC/Nga mice. […] Also, serum IgE levels and swelling of the auricular lymph nodes of the mice were determined in the same manner as described in Example 2.

NC/Nga mice [4] = test: Transdermal water loss (TEWL) in the skin of NC/Nga mice; format: in vivo; conditions: topical application plus PiCl, at 5 weeks, vs Vaseline
Protocol: Transdermal water loss (TEWL) in the skin of the mice treated with fucoxanthin was also measured and compared with that in the skin of the mice treated with tacrolimus.

NC/Nga mice [5] = test: Serum IgE content by ELISA in NC/Nga mice; format: in vivo; conditions: topical application for 5 weeks, PiCl-sensitized, vs Vaseline
From the text: as §1

CC1=C(/C=C/C(C)=C/C=C/C(C)=C/C=C/C=C(C)/C=C/C=C(C)/C=C/C2=C(C)C(=O)[C@@H](O)CC2(C)C)C(C)(C)C[C@H](O)C1=O [astaxanthin, reference compound]
GATA-luc expression (GATA-luc): not downregulated | granule formation (tryptase-positive cells / immunoreactivity against tryptase) [1]: not significantly reduced

CC(C)=CCC/C(C)=C/C=C/C(C)=C/C=C/C(C)=C/C=C/C=C(C)/C=C/C=C(C)/C=C/C=C(\C)CCC=C(C)C [lycopene]
GATA-luc expression (GATA-luc): not downregulated

C=CC[C@@H]1/C=C(\C)C[C@H](C)C[C@H](OC)[C@H]2O[C@@](O)(C(=O)C(=O)N3CCCC[C@H]3C(=O)O[C@H](/C(C)=C/[C@@H]3CC[C@@H](O)[C@H](OC)C3)[C@H](C)[C@@H](O)CC1=O)[C@H](C)C[C@@H]2OC [tacrolimus, reference compound]
swelling of the auricular lymph node (ear swelling) (NC/Nga mice [2]): neither ear swelling (FIG. 9A) nor serum IgE level (FIG. 9B) were affected | clinical symptoms of dermatitis (AD symptoms) (NC/Nga mice [3]): protected AD symptoms partially | transdermal water loss (TEWL) (NC/Nga mice [4]): did not affect TEWL | serum IgE level (NC/Nga mice [5]): neither ear swelling (FIG. 9A) nor serum IgE level (FIG. 9B) were affected

CC1=C(/C=C/C(C)=C/C=C/C(C)=C/C=C/C=C(C)/C=C/C=C(C)/C=C/C2=C(C)CCCC2(C)C)C(C)(C)CCC1 [β-carotene]
GATA-luc expression (GATA-luc): rather upregulated

Reference: patent US9566262B2, “Itch suppression by fucoxanthin” (THE RITSUMEIKAN TRUST, priority 2015, dated 2017)
